Columns and labels:
[1] = Stability of dissolved curcumin: hydrolysis at alkaline pH and precipitation over time; assay type: physicochemical; details: pressure-dissolved (15 psi, 121° C.) solution
Experimental: For solutions made at room temperature it is difficult to obtain a clear (i.e., solid-free) supernatant even from careful centrifuging. The samples are far more soluble in alkaline water (e.g., pH 7.6), but when placed in phosphate buffered saline (PBS) and serum-free media at modest alkaline pH (pH 7.2, at 37° C.) the curcuminoids are hydrolyzed substantially completely within 30 minutes.
Even so, UV-Visible spectra and mass specta (from matrix assisted laser desorption […] time of flight mass spectrometry, MALDI-TOF-MS) confirmed that the dissolved curcumin was substantially unchanged by the heat treatment. Heat treatment also appears to increase the solubilization of BDMC but (curiously) not DMC.
(§1) The autoclave cycle was 70 minutes, of which ˜40 minutes represent actual time under pressure.

[2] = Ingestion of aqueous solubilized curcumin by four adult males, reported effects; assay type: in vivo, human
Experimental: The study conditions were as follows.
This subject's study was conducted in a completely blind manner: the subject was told nothing about the known or suspected properties but was merely asked to report their observations.

DNA = experiment: Binding or intercalation to DNA; details: heat solubilized
[3] = cited from earlier work
[4] = Curcumin dissolution in water (saturated), centrifuged supernatant read by UV-Vis at 405 nm; assay type: physicochemical
Experimental: as §1
That mixture was then combined with 47.5 mL of deionized water to make up a 50 mL solution.

[5] = as above; assay type: physicochemical; remark: listed apart in the source
[6] = system: 4-hydroxy-2-nonenal-mediated oxidative modification of a protein substrate; experiment: Inhibition of 4-hydroxy-2-nonenal-mediated oxidative modification of a protein substrate; assay type: biochemical; details: heat-solubilized
anti-spectrin / spectrin = experiment: Inhibition of binding of commercial polyclonal anti-spectrin to spectrin; details: heat-solubilized
[7] = system: anti-Ro60 autoantibodies / Ro60 autoantigen; experiment: Inhibition of binding of anti-Ro60 autoantibodies to Ro60 autoantigen; set-up: species or system human; details: heat-solubilized
[8] = 0.1% Tween-20, 15 psi, 121° C., deionized water
[9] = 0.5% Tween-20, 15 psi, 121° C., deionized water
[10] = 2% Tween-20, 15 psi, 121° C., deionized water
[11] = 15 psi, 121° C., deionized water, 5 mg/mL present
[12] = 0.1% Tween-20, room pressure, 100° C. deionized water
[13] = 2% Tween-20, room pressure, 100° C. deionized water

With `COc1cc(/C=C/C(=O)CC(=O)/C=C/c2ccc(O)c(OC)c2)ccc1O` [curcumin, 1,7-bis[4-hydroxy-3-methoxyphenyl]-1,6-heptadiene-3,5-dione] the “Precipitation or turbidity of the solution over time” value [1] was “did not precipitate out or cause the solution to become cloudy or turbid”, the “Reduction in pristine curcumin” value ([1]; alkaline pH for 72 hours) was 32% and the “Duration of relief from metatarsal arthritic inflammation” value ([2]; Subject #3, about 100 kg, 20 mL of 350 micromolar sample (autoclave, 5% ethanol), ingested) was “about 48 hours”. The Effect on mood ([2]; four adult males, 5-20 mL of 150-350 micromolar autoclaved aqueous curcumin, ingested) was “mood elevating effects”, the “Onset of mood elevating effects” value ([2]; four adult males, ingested autoclaved aqueous curcumin) was “almost instantaneously” and the “Intercalation into or binding to DNA” value (DNA) was “does not intercalate into or otherwise bind to DNA”. The “Increase in solubility by heat treatment over unheated” value ([3]; Kurien et al. (2007): boiling deionized water) was 12 fold, the “Solubility of curcumin itself” value ([3]; deionized water at room temperature, dissolved material is DMC and BDMC) was “insoluble” and the “Dissolution (Approximate) Mass/mL” value [4, 8] was 44.84 µg/mL. For the same molecule, the “Dissolution (Approximate) Molarity” value [4, 8] was 0.12 mM, the “Dissolution (Approximate) Molarity” value [4, 9] was 0.75 mM and the “Dissolution (Approximate) Mass/mL” value [4, 10] was 1556 µg/mL. The “Dissolution (Approximate) Molarity” value [4, 10] was 4.2 mM, the “Increase over curcumin dissolved at ambient temperature” value ([4]; 15 psi, 121° C., 5% ethanol in deionized water) was about 100 fold and the “Dissolved share of the original amount” value ([4]; 15 psi, 121° C., 5% ethanol in deionized water, made up to 50 mL) was “about 12.9%”. The “Dissolved share of the curcumin initially present” value [4, 11] was 5%, the “Solubilized share of starting curcumin” value ([4]; autoclaved in water with 2% of a poly(alkyl ether), 50 mL starting solution) was 31% and the “Dissolution (Approximate) Mass/mL” value [5, 12] was 22.5 µg/mL. For the same molecule, the “Dissolution (Approximate) Molarity” value [5, 12] was 0.061 mM, the “Dissolution (Approximate) Mass/mL” value [5, 9] was 278.1 µg/mL and the “Dissolution (Approximate) Mass/mL” value ([5]; 0.5% Tween-20, room pressure, 100° C. deionized water) was 77.44 µg/mL. For the same molecule, the “Dissolution (Approximate) Mass/mL” value [5, 13] was 443.52 µg/mL, the “Dissolution (Approximate) Molarity” value [5, 13] was 1.2 mM and the “Dissolution (Approximate) Molarity” value [5, 11] was 0.68 mM. For the same molecule, the “Inhibition of 4-hydroxy-2-nonenal-mediated oxidative modification of a protein substrate” value [6] was 80%, the “Inhibition of binding of commercial polyclonal anti-spectrin to spectrin” value (anti-spectrin / spectrin) was 50% and the “Inhibition of binding of anti-Ro60 autoantibodies to Ro60 autoantigen” value ([7]; Sjögren's syndrome sera) was “up to 43%”. The “Inhibition of binding of anti-Ro60 autoantibodies to Ro60 autoantigen” value ([7]; systemic lupus erythematosus (SLE) sera) was “up to 52%”.

Source: patent publication US20140161915A1, “Solubilization of cucurminoid compounds and products thereof” (priority 2011, published 2014)
